Results on two molecules are retold here after patent US9625448B2, “Double caged GABA compounds, bis-CNB-GABA” (The Trustees of Princeton University, priority 2014, dated 2017).

“Also recorded” adds a separate entry of the source. Where only a bound is given, the exact number is not on record here.

For data set [1], the system named is dentate granule cells. Set-up: dose or concentration left out as unconfirmed. The conditions noted are these: holding potential −80 mV; cited from earlier work.
In data set [2] the test system is glutamate receptors. Briefly: Spontaneous EPSCs / miniature AMPA currents recorded from cerebellar interneurons. The format is cell-based. How it is done:
Bis-CNB-GABA was applied in vitro. Currents were recorded from cerebellar interneurons. […] FIG. 35 (right) illustrates response traces before and after application of bis-CNB-GABA. FIG. 35 (left) illustrates summary of data. FIG. 36 illustrates effects of 1 mM bis-CNB-GABA on spontaneously evoked miniature glutamate and miniature GABA currents in cerebellar interneuron.
FIG. 37 illustrates effects of uncaging. […] Referring to FIG. 37 (bottom), the graph illustrates uncaging at 365 nm with LED in the presence of 3 mM gabazine.
As a third and final test of the synaptic effects of bis-CNB-GABA, we measured its impact on spontaneous glutamatergic postsynaptic currents (EPSCs) recorded from MLIs. Referring to FIGS. 43B and 43E, with this configuration, no change in the amplitude of the EPSCs was observed (FIG. 43B, bottom) even with concentrations of bis-CNB-GABA up to 2 mM (FIG. 43E, p=0.4, Spearman rank order correlation test).

For data set [3], the system named is cerebellar molecular layer interneurons. Briefly: Photolysis-evoked GABAergic currents in cerebellar molecular layer interneurons. Format: cell-based. How it is done: The biological properties of our synthetic bis-CNB-GABA were evaluated using whole-cell patch recording from cerebellar molecular layer interneurons.
FIGS. 42A-42E illustrate physiological responses to photolysis of bis-CNB-GABA. FIG. 42A illustrates a cerebellar molecular layer interneuron visualized using Alexa 488 in the patch recording electrode solution. Referring to FIG. 42A, bis-CNB-GABA (0.6 mM) was photolyzed with a 405 nm laser spot in 3 different locations (indicated by 1, 2 and 3). Still referring to FIG. 42A, laser-evoked GABAergic currents are shown on the right panel. Still referring to FIG. 42A, gray traces show individual sweeps and black traces are averages. Still referring to FIG. 42A, the gray sweep at bottom indicates the laser flash (1 ms duration, intensity 5 mW) as recorded using a photodiode. FIG. 42B illustrates bis-CNB-GABA (1.4 mM) was photolyzed with a […] LED at progressively higher flash energies (0.25-1.1 mW, 5-50 ms, 1.25-55 μJ). FIG. 42C illustrates the same experiment as shown in FIG. 42B with Responses to mono-CNB-GABA (50 μM). FIG. 42D illustrates normalized current as a function of relative LED flash energies plotted on a log-log scale. FIG. 42E illustrates laser-evoked whole-cell current recorded in the absence and presence of 3 μM gabazine, a GABA receptor antagonist. Referring to FIG. 42E, a larger flash energy was used in the presence of gabazine.
Referring to FIG. 42A, molecular layer interneurons receive excitatory glutamatergic synapses, as well as inhibitory GABAergic synapses that show a pronounced level of spontaneous activity (gray traces). The effects of bis-CNB-GABA on these synaptic currents were tested.
By contrast, the relationship for mono-O-CNB-GABA was close to linear (log-log slope=1.3±0.1, n=3). For these measurements, evoked currents were normalized to the maximum current observed in the same neuron. […] These power laws are consistent with a process in which each molecule of bis-CNB-GABA must cumulatively undergo two uncaging reactions in order to release an active GABAA agonist.
To test whether bis-CNB-GABA-evoked responses resemble physiological events in their kinetics, we measured the kinetic properties of flash responses. […] This rise time is consistent with the dark reaction time (1.5 ms) for the slower cage, N-mono-CNB-GABA (Wieboldt, R.; Ramesh, D.; Carpenter, B. K; Hess, G. P. Biochemistry, 1994, 33, 1526-1533, which is incorporated herein by reference as if fully set forth). […] These rates approach those of spontaneous events and are among the fastest described for other GABA cages. […]

Data set [4] is described as follows: Absorbance spectrum / extinction coefficient. The format is physicochemical. Particulars: for extinction coefficient: at 262 nm. How it is done: Following successful synthesis of bis-CNB-GABA, it was necessary to quantify extinction coefficient and quantum yield. […] Referring to FIG. 32, the first was accomplished simply by taking an absorbance spectrum of the compound. Extinction coefficient was then calculated from Beer's law.

The nature of data set [5]: physchem. Format: physicochemical. Particulars: pH 7, aqueous buffer, thermodynamic from solid. From the text: Solubility data was important to obtain before attempting to use the compound in neural tissue. This was accomplished by dissolving a known amount of bis-CNB-GABA in pH 7.0 phosphate buffer solution.

With `NCCCC(=O)OC(C(=O)O)c1ccccc1[N+](=O)[O-]` (centres unmarked) [mono-CNB-GABA], in data set [1], the “effect on EPSC evoked by stimulation of the perforant path” value is reported as “did not significantly affect”.
For the molecule `O=C(CCCNC(C(=O)O)c1ccccc1[N+](=O)[O-])OC(C(=O)O)c1ccccc1[N+](=O)[O-]` (centres unmarked) [bis-CNB-GABA, 2-((4-(Carboxy(2-nitrophenyl)methoxy)-4-oxobutyl)amino)-2-(2-nitrophenyl)acetic acid], the “effect on spontaneously-evoked AMPA currents” value in data set [2] (1 mM (FIG. 36), FIG. 39) is given as “no significant effect”. Further, the “effect on amplitude of miniature AMPA currents” value in data set [2] (1.223 mM) is “no significant effect”. The “effect on miniature AMPA currents” value in data set [2] (1.233 mM and 1.0 mM) is listed as “no significant effect”. Besides, the “effect on spontaneous EPSC size / amplitude” value in data set [2] (all concentrations tested, up to 2 mM) is “unaffected; also recorded: no change”. In data set [3] (FIGS. 38A-38D), the “rise time of GABA-induced currents upon photolysis” value is on record as “approximately 2 ms”. In addition, the “10-90% rise time of flash responses” value in data set [3] (responses comparable in size with spontaneous IPSCs, flash 1.0 ms, n=10) is given as 2.2±0.6 ms. In data set [4], the “wavelength of maximal absorbance” value came to 262 nm. The extinction coefficient in data set [4] (listed as Bis-CNB GABA) was 7,550 M^−1 cm^−1; in data set [4] (listed as Bis-CNB-GABA) it was 7550 M⁻¹ cm⁻¹. The same molecule gave a solubility in data set [5] of at most 17 mM.

What is called solubility is the concentration that dissolves in the medium under given conditions.
